Assays:
[1] = system: MCF-7 cells; assay: MTT cell viability assay on MCF-7 breast cancer cells; type: cell-based, human; conditions: 72 hours
Procedure: (§1) HeLa, MCF-7 and MDA-MB-231 cells were obtained from Sigma-Aldrich and maintained as reported previously. MRC-5, PC-3, DU 145 cells were purchased from American Type Culture Collection (ATCC, Manassas, VA, USA). PC-3 and DU 145 were maintained in RPMI medium (Sigma-Aldrich) whereas MRC-5 cells were maintained in DMEM medium (Sigma-Aldrich). All media were complemented with 10% Fetal bovine serum (FBS, Sigma-Aldrich) 2 mM L-glutamine, 0.01% streptomycin and 0.005% ampicillin (Sigma-Aldrich). Cells were cultured under standard conditions in a 37 °C incubator containing 5% CO2 in 95% humidity.
(§2) Each test compound was dissolved in cell culture grade DMSO (Molar Chemicals, Halásztelek, Hungary) in a final concentration of […]. Antiproliferative action of the synthesized steroids was investigated by MTT assay. An amount of 5000 cells/well were seeded into 96 well plates. Twenty-four hours post seeding, all cell lines were treated with each compound in 10 and 30 μM concentrations for 72 hours. […] After 72 hours, cells were washed with PBS and incubated with culture medium containing 0.5 mg/mL MTT (3-(4, 5-dimethylthiazolyl-2)-2,5-diphenyltetrazolium bromide) reagent (SERVA, GmbH, Heidelberg, Germany) for an hour at 37 °C. Formazan crystals were solubilized in DMSO and extinction was measured at 570 nm using a Synergy HTX plate reader (BioTech-Hungary, Budapest, Hungary). MTT assays were performed at least three times using four independent biological replicates. Data were normalized to solvent controls and the graphical representation of the obtained data as well as the calculation of IC50 values were carried out by GraphPad Prism 7 software (GraphPad Software; San Diego, CA, USA).

[2] = system: DU 145 cells; assay: MTT cell viability assay on DU 145 prostate cancer cells; type: cell-based, human; conditions: 72 hours
Procedure: as §1, §2

[3] = system: HeLa cells; assay: MTT cell viability assay on HeLa cervical cancer cells; type: cell-based, human; conditions: 72 hours
Procedure: as §1, §2

[4] = system: PC-3 cells; assay: MTT cell viability assay on PC-3 prostate cancer cells; type: cell-based, human; conditions: for antiproliferative potency against PC-3 prostate cancer cells compared to MRC-5 non-cancerous fibroblasts: primary screen
Procedure: as §1, §2

[5] = system: MDA-MB-231 cells; assay: MTT cell viability assay on MDA-MB-231 breast cancer cells; type: cell-based, human; conditions: 72 hours
Procedure: as §1, §2

[6] = system: MRC-5 cells; assay: MTT cell viability assay on non-cancerous MRC-5 fibroblasts; type: cell-based; conditions: 72 hours, MTT
Procedure: as §1, §2

Structure (SMILES) | Mean values (%) of primary growth inhibitory screen (viability in %), MCF-7 ([1]; 10 µM) | Mean values (%) of primary growth inhibitory screen (viability in %), MCF-7 ([1]; 30 µM) | Mean values (%) of primary growth inhibitory screen (viability in %), DU 145 ([2]; 10 µM) | Mean values (%) of primary growth inhibitory screen (viability in %), DU 145 ([2]; 30 µM) | Mean values (%) of primary growth inhibitory screen (viability in %), HeLa ([3]; 10 µM) | Mean values (%) of primary growth inhibitory screen (viability in %), HeLa ([3]; 30 µM) | Mean values (%) of primary growth inhibitory screen (viability in %), PC-3 ([4]; 10 µM, 72 hours, MTT) | antiproliferative potency against PC-3 prostate cancer cells compared to MRC-5 non-cancerous fibroblasts ([4]; 10 µM) | Mean values (%) of primary growth inhibitory screen (viability in %), PC-3 ([4]; 30 µM, 72 hours, MTT) | antiproliferative potency against PC-3 prostate cancer cells compared to MRC-5 non-cancerous fibroblasts ([4]; 30 µM) | Mean values (%) of primary growth inhibitory screen (viability in %), MDA-MB-231 ([5]; 10 µM) | Mean values (%) of primary growth inhibitory screen (viability in %), MDA-MB-231 ([5]; 30 µM) | Mean values (%) of primary growth inhibitory screen (viability in %), MRC-5 ([6]; 10 µM) | Mean values (%) of primary growth inhibitory screen (viability in %), MRC-5 ([6]; 30 µM) | IC50 ([1]; ± SD) | IC50 ([2]; ± SD) | IC50 ([3]; ± SD) | IC50 ([4]; MTT, 72 hours, ± SD) | IC50 ([5]; ± SD) | IC50 ([6]; ± SD)
Cc1c2c(nn1-c1ccc(C#N)cc1)C[C@@H]1CC[C@@H]3[C@H](CC[C@]4(C)[C@@H](O)CC[C@@H]34)[C@@]1(C)C2 [4i, 17β-Hydroxy-1′-(4″-cyanophenyl)-5′-methylpyrazolo[3′,4′:3,2]-5α-androstane] | 53.6% | 50.4% | 104.9% | 105.7% | 62.9% | 72.5% | 56.6% | significantly higher | 53.3% | significantly higher | 93.0% | 89.1% | 100.3% | 97.4% |  |  |  |  |  | 
Cc1ccc(-n2nc3c(c2C)C[C@@]2(C)[C@@H](CC[C@@H]4[C@@H]2CC[C@]2(C)C(=O)CC[C@@H]42)C3)c(C)c1 [5d, 1′-(2″,4″-Dimethylphenyl)-5′-methylpyrazolo[3′,4′:3,2]-5α-androst-17-one] | 56.3% | 13.3% | 65.6% | 10.0% | 39.5% | 30.7% | 52.1% |  | 14.6% |  | 77.2% | 54.1% | 80.1% | 21.3% |  |  |  |  |  | 
Cc1ccc(-n2nc3c(c2C)C[C@@]2(C)[C@@H](CC[C@@H]4[C@@H]2CC[C@]2(C)[C@@H](O)CC[C@@H]42)C3)c(C)c1 [4d, 17β-Hydroxy-1′-(2″,4″-dimethylphenyl)-5′-methylpyrazolo[3′,4′:3,2]-5α-androstane] | 74.5% | 10.5% | 70.2% | 2.3% | 65.6% | 56.1% | 53.4% |  | 3.6% |  | 92.0% | 47.9% | 78.9% | 0.8% |  |  |  |  |  | 
Cc1c2c(nn1-c1ccc([N+](=O)[O-])cc1)C[C@@H]1CC[C@@H]3[C@H](CC[C@]4(C)C(=O)CC[C@@H]34)[C@@]1(C)C2 [5j, 1′-(4″-Nitrophenyl)-5′-methylpyrazolo[3′,4′:3,2]-5α-androst-17-one] | 46.5% | 14.4% | 73.0% | 42.8% | 47.4% | 29.4% | 36.8% | significantly higher | 16.0% | significantly higher | 83.5% | 71.7% | 94.8% | 44.6% | 11.3 ± 2.8 µM | 13.5 ± 1.1 µM | 10.4 ± 0.1 µM | 6.7 ± 1.1 µM | > 30 µM | 25.5 ± 2.3 µM
Cc1ccccc1-n1nc2c(c1C)C[C@@]1(C)[C@@H](CC[C@@H]3[C@@H]1CC[C@]1(C)C(=O)CC[C@@H]31)C2 [5b, 1′-(2″-Tolyl)-5′-methylpyrazolo[3′,4′:3,2]-5α-androst-17-one] | 59.3% | 63.6% | 82.3% | 58.4% | 65.5% | 66.8% | 62.3% |  | 43.2% | significantly higher | 83.0% | 76.9% | 93.2% | 66.2% |  |  |  |  |  | 
Cc1c2c(nn1-c1ccc(Cl)cc1)C[C@@H]1CC[C@@H]3[C@H](CC[C@]4(C)C(=O)CC[C@@H]34)[C@@]1(C)C2 [5g, 1′-(4″-Chlorophenyl)-5′-methylpyrazolo[3′,4′:3,2]-5α-androst-17-one] | 56.3% | 28.0% | 73.7% | 23.2% | 38.7% | 39.0% | 54.7% | significantly higher | 11.8% |  | 65.7% | 65.1% | 94.4% | 18.1% |  |  |  |  |  | 
Cc1c2c(nn1-c1ccc(Br)cc1)C[C@@H]1CC[C@@H]3[C@H](CC[C@]4(C)[C@@H](O)CC[C@@H]34)[C@@]1(C)C2 [4h, 17β-Hydroxy-1′-(4″-bromophenyl)-5′-methylpyrazolo[3′,4′:3,2]-5α-androstane] | 54.1% | 5.2% | 95.1% | 2.2% | 38.2% | 5.8% | 61.6% |  | 3.6% |  | 69.4% | 10.5% | 92.8% | 12.7% |  |  |  |  |  | 

Source: publication PMC6539495, “Anti-Cancer Activity of Novel Dihydrotestosterone-Derived Ring A-Condensed Pyrazoles on Androgen Non-Responsive Prostate Cancer Cell Lines” (International Journal of Molecular Sciences, 2019)
